Results from patent publication US8435957B2, “Use of lignan compound for anti-wrinkle treatment” (Biocare Co., Ltd., priority 2007, dated 2013).

Assays:
[1] = system: matrix metalloproteinase-1 (MMP-1); experiment: Western blot of matrix metalloproteinase-1 (MMP-1) expression in fibroblasts radiated with UV light; format: cell-based, human; conditions: for inhibition of expression of matrix metalloproteinase-1: UV 20 J/cm^2, given as 'higher than the negative control'; for expression of matrix metalloproteinase-1, result in words: 3, 5 and 10 μM, versus UV 20 J/cm^2 positive control, FIG. 3, FIG. 4; for inhibition at 3 µM / inhibition at 5 µM / inhibition at 10 µM: Homo sapiens, Fibroblast, light or radiation study, compared with UV 20 J/cm^2 treated positive control group, read-out: matrix metalloproteinase-1 (MMP-1) inhibitory activity effect
Protocol: Fibroblasts were cultured in a 60-mm dish at a concentration of 2×10^5 cells/ml to a confluence of about 85%. Before UV radiation, the medium was removed, and the cells were washed with PBS to remove a serum component therefrom, and then radiated with UV light at a dose of 20 J/cm^2. After the fibroblast cells were radiated with UV light, the cells were treated with each of the samples and cultured with serum free DMEM for 48 hours.
In order to measure the expression levels of matrix metalloproteinase-1 (MMP-1), Western blot was used, and the amount of total protein in the medium containing the fibroblasts cultured therein was quantified using the Bradford method.
The extracted protein was electrophoresed on 10% SDS-polyacrylamide gel, and then transferred to a nitrocellulose membrane. The membrane was blocked with 5% skim milk at room temperature for 1 hour in order to prevent it from being contaminated with other unknown proteins. Primary antibody to matrix metalloproteinase-1 was diluted in a blocking solution at a ratio of 1:1000 and allowed to react with the membrane at room temperature for 2 hours. After the primary antibody reaction, the membrane was washed three times with Tris-buffer saline Tween 20 (TBST) with shaking for 10 minutes each time. Secondary antibodies recognizing the primary antibodies to matrix metalloproteinase-1 was diluted in 5% skim milk at a ratio of 1:1000 and allowed to react with the membrane at room temperature for 1 hour. Then, the membrane was washed three times with tris-buffer saline Tween 20 with shaking for 10 minutes each time in the same manner as in the case of the primary antibody reaction, and then was developed by chemiluminescence.

human normal fibroblasts = experiment: MTT assay, cell proliferation effect in fibroblasts; format: cell-based; conditions: 48 h serum-free culture, untreated medium as control
Protocol: In order to examine a cell proliferation effect proving the effect of reducing skin wrinkles, an MTT assay (3-(4,5-dimethylthiazol-2-yl)-2,5-diphenyl tetrazolium bromide reduction method) was carried out using fibroblasts.
First, human normal fibroblasts were plated into a 96-well plate at a concentration of 2×10^5 cells/well and primarily cultured in 10% FBS (fetal bovine serum)-containing DMEM medium in conditions of 37° C. and 5% CO2 for 24 hours. After the primary culture, the cells were treated with varying concentrations of the inventive sample. Then, the medium was replaced with a serum-free medium, and the cells were secondarily cultured for 48 hours. After the secondary culture step, 100 μl of MTT solution was added to the medium. Then, the resulting solution was left to stand for 4 hours, and then the medium was removed. 100 μl of dimethyl sulfoxide solution was added to each well and stirred for 20 minutes, and then the absorbance of each well at 540 nm was measured with a microplate reader.
According to the method of Example 2, the cell proliferation effects of 75% methanol extract of the aril of nutmeg and fragrin A and austobailignan 7 which are isolated and purified thereof were measured. In the MTT assay, a culture medium not treated with the sample was used as a control group and measured for absorbance, and the analysis results are shown in Table 3 below.

[2] = system: hairless mouse (Skh; HR-1); experiment: In vivo anti-wrinkle effect, skin application, skin replica; conditions: applied to skin: 50 μl of 6% (w/v) nutmeg extract or 20 mM macelignan; versus UV positive group; FIG. 7
Protocol: (§1) 6-week hairless mouse (Skh; HR-1) have a quarantine period for 1 week before experiment, and cared maintaining temperature with 23±3° C., relative humidity with 50±5° C., and 12 hours of day/night cycle (07:00-19:00/day time). They were fed with feed for mouse, and tap water. UV irradiations were performed 3 times per week in the same time, the amount of the UV irradiations were 50 mJ/cm^2 on 1st week, 100 mJ/cm^2 on 2nd week, 200 mJ/cm^2 on 3rd week, and 250 mJ/cm^2 on 4th and after 4th weeks. The groups were divided into 4 groups. Those were control, UV control, UV/nutmeg and UV/macelignan.
50 μl of 6% (w/v) of nutmeg extract and 20 mM macelignan solution were applied for the experiment. For the experiment, nutmeg extract and macelignan were disolved in ethanol:polyethylene glycol (7:3, v/v).
In FIG. 7, A is the normal group, B is the UV irradiated group, C is the nutmeg applying group, and D is the macelignan applying group.

[3] = system: hairless mouse (Skh; HR-1); experiment: In vivo anti-wrinkle effect, oral administration, skin replica; conditions: oral: 200 mg/kg nutmeg or 20 mg/kg macelignan; versus UV positive group; FIG. 8
Protocol: as §1, with “UV/macelignan. 200 mg/kg of nutmeg and 20 mg/kg of macelignan were administered respectively by oral. For the experiment, nutmeg extract and macelignan were disolved in 0.25% CMC (carboxyl methyl celluose) solution.” for “UV/macelignan.”
In FIG. 8, A is the normal group, B is the UV irradiated group, C is the nutmeg administering group, and D is the macelignan administering group.

Structure (SMILES)	inhibition of expression of matrix metalloproteinase-1 ([1]; 10 μM)	expression of matrix metalloproteinase-1, result in words [1]	Proliferation effect (%) (human normal fibroblasts; 3 μg/ml)	Proliferation effect (%) (human normal fibroblasts; 5 μg/ml)	Proliferation effect (%) (human normal fibroblasts; 10 μg/ml)	inhibition at 3 µM [1]	inhibition at 5 µM [1]	inhibition at 10 µM ([1]; 10 μM)	effect on reducing wrinkle (skin replica), result in words [2]	effect on inhibiting wrinkle (skin replica), result in words [3]	inhibition of expression of matrix metalloproteinase-1 ([1]; 10 μg/ml)
COc1cc([C@@H]2OC(c3ccc4c(c3)OCO4)[C@@H](C)[C@@H]2C)ccc1O (some centres unmarked) [austobailignan 7, austrobailignan-7]	65%	inhibited the expression of matrix metalloproteinase-1 with dose-dependent manners	104%	105%	110%	–	–	–	–	–	–
C=CCc1cc(OC)c(OC(C)Cc2ccc(O)c(OC)c2)c(OC)c1 (centres unmarked) [fragrin A, 2-(4-allyl-2,6-dimethoxyphenoxy)-1-(4-hydroxy-3-methoxyphenyl)-propane]	65%	inhibited the expression of matrix metalloproteinase-1 with dose-dependent manners	101%	104%	108%	–	–	–	–	–	–
C/C=C/c1cc(OC)c2c(c1)[C@@H](C)C(c1ccc3c(c1)OCO3)O2 (some centres unmarked) [licarin E]	–	–	–	–	–	35%	47%	73%	–	–	–
COc1cc(C[C@H](C)[C@H](C)Cc2ccc3c(c2)OCO3)ccc1O [macelignan]	–	–	–	–	–	31%	42%	63%	inhibited wrinkle	inhibited wrinkle	–
O=C1O[C@H]([C@@H](O)CO)C(O)=C1O [vitamin-C, reference compound]	20%	–	–	–	–	–	–	–	–	–	20%
